Literature values, collected in patent publication US20230320397A1, “EXTRACTS FOR HEALTH SUPPLEMENTS” (EXTENDED LONGEVITY, priority 2022, published 2023).

Settings: by the use of heat

increased solubility: 12 fold
SMILES: COc1cc(/C=C/C(=O)CC(=O)/C=C/c2ccc(O)c(OC)c2)ccc1O [curcumin]
